Assay results taken from patent US12052991B2, “Substituted pyridinyloxybenzenes and salts thereof and use thereof as herbicidal agents” (Bayer Aktiengesellschaft, priority 2018, dated 2024).

These compounds were tested on Matricaria inodora (MATIN) (assay: Herbicidal post-emergence action (Table B7)). Details: 320 g/ha; rated visually after about 3 weeks; 100% = plants have died, 0% = like control plants.
Format: in vivo
Method in brief: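 Application rates of 1280 or 320 g/ha were tested post-emergence on one-leaf-stage greenhouse plants in sandy loam, using WP or EC formulations with 0.5% additive at 600 L/ha. Activity was rated visually against untreated plants about 3 weeks later.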
`Fc1cccc(Oc2ccc(Cl)cn2)c1-c1cc(C(F)F)no1` [Example 1-17] was tested, and the “Post-emergence action against Matricaria inodora (MATIN)” value was 100%.

Same assay, conditions: 1280 g/ha; rated visually after about 3 weeks; 100% = plants have died, 0% = like control plants
With `Fc1cccc(Oc2ccc(Cl)cn2)c1-c1cc(C(F)F)no1` [Example 1-17] the “Post-emergence action against Matricaria inodora (MATIN)” value was 100%.

The compounds below were run on Digitaria sanguinalis (DIGSA) (assay: Herbicidal pre-emergence action, test D, single sowings (Table D2)). Details: 80 g/ha; scored visually after about 3 weeks; 100% = plants have died, 0% = like control plants.
Format: in vivo
Text: (§1) Seeds of monocotyledonous and dicotyledonous weed plants were laid out in plastic or organic plant pots (single sowings with one species of mono- or dicotyledonous weed plant per pot) and covered with soil. The compounds of the invention, formulated in the form of wettable powders (WP) or as emulsion concentrates (EC), were then applied to the surface of the covering soil as aqueous suspension or emulsion with addition of 0.5% additive at a water application rate equivalent to 600 l/ha (converted). After the treatment, the pots were placed in a greenhouse and kept under good growth conditions for the test plants. After about 3 weeks, the effect of the preparations was scored visually in comparison with untreated controls as percentages. For example, 100% activity=the plants have died, 0% activity=like control plants. Tables D1 to D8 below show the effects of selected compounds of the general formula (I) according to Table 1 on various harmful plants and an application rate corresponding to 80 g/ha, which were obtained by the experimental procedure mentioned above.
`Fc1cccc(Oc2ccc(Cl)cn2)c1-c1cc(C(F)F)no1` [Example 1-17] was tested, and the “Pre-emergence action against Digitaria sanguinalis (DIGSA)” value was 90%.

What follows are compounds tested on soybean (GLXMA, var. Sultana) (assay: Pre-emergence crop plant compatibility (Table E1)). Details: dosage 80 g/ha, scored after about 3 weeks, 0% = like control plants.
Format: in vivo
Text: as §1, with “crop” for “weed”, “placed” for “laid out”, “pots” for “pots (single sowings with one species of mono- or dicotyledonous weed plant per pot)”, “plants.” for “plants. Tables D1 to D8 below show the effects of selected compounds of the general formula (I) according to Table 1 on various harmful plants and an application rate corresponding to 80 g/ha, which were obtained by the experimental procedure mentioned above.”
For `Fc1cccc(Oc2ccc(Cl)cn2)c1-c1cc(C(F)F)no1` [Example 1-17], the “Crop plant compatibility in pre-emergence, GLXMA (damage to soybean)” value was 20%.

What follows are compounds tested on corn (ZEAMX, var. Aventura) (assay: Pre-emergence crop plant compatibility (Table E1)). Details: dosage 80 g/ha, scored after about 3 weeks, 0% = like control plants.
Format: in vivo
Text: as §1, with “crop” for “weed”, “placed” for “laid out”, “pots” for “pots (single sowings with one species of mono- or dicotyledonous weed plant per pot)”, “plants.” for “plants. Tables D1 to D8 below show the effects of selected compounds of the general formula (I) according to Table 1 on various harmful plants and an application rate corresponding to 80 g/ha, which were obtained by the experimental procedure mentioned above.”
For `Fc1cccc(Oc2ccc(Cl)cn2)c1-c1cc(C(F)F)no1` [Example 1-17], the “Crop plant compatibility in pre-emergence, ZEAMX (damage to corn)” value was 0%.

These compounds were tested on wheat (TRZAS, var. Triso) (assay: Pre-emergence crop plant compatibility (Table E1)). Details: dosage 80 g/ha, scored after about 3 weeks, 0% = like control plants.
Format: in vivo
Text: as §1, with “crop” for “weed”, “placed” for “laid out”, “pots” for “pots (single sowings with one species of mono- or dicotyledonous weed plant per pot)”, “plants.” for “plants. Tables D1 to D8 below show the effects of selected compounds of the general formula (I) according to Table 1 on various harmful plants and an application rate corresponding to 80 g/ha, which were obtained by the experimental procedure mentioned above.”
With `Fc1cccc(Oc2ccc(Cl)cn2)c1-c1cc(C(F)F)no1` [Example 1-17] the “Crop plant compatibility in pre-emergence, TRZAS (damage to wheat)” value was 20%.

What follows are compounds tested on viola tricolor (VIOTR) (assay: Herbicidal pre-emergence action, test D, single sowings (Table D7)). Details: dosage 80 g/ha, scored after about 3 weeks.
Format: in vivo
Text: as §1
For `Fc1cccc(Oc2ccc(Cl)cn2)c1-c1cc(C(F)F)no1` [Example 1-17], the “Pre-emergence action against viola tricolor (VIOTR)” value was 100%.

These compounds were tested on Setaria viridis (SETVI) (assay: Herbicidal pre-emergence action, test D, single sowings (Table D3)). Details: dosage 80 g/ha, scored after about 3 weeks.
Format: in vivo
Text: as §1
`Fc1cccc(Oc2ccc(Cl)cn2)c1-c1cc(C(F)F)no1` [Example 1-17] was tested, and the “Pre-emergence action against Setaria viridis (SETVI)” value was 100%.

The compounds below were run on Veronica persica (VERPE) (assay: Herbicidal pre-emergence action, test D, single sowings (Table D8)). Details: dosage 80 g/ha, scored after about 3 weeks.
Format: in vivo
Text: as §1
With `Fc1cccc(Oc2ccc(Cl)cn2)c1-c1cc(C(F)F)no1` [Example 1-17] the “Pre-emergence action against Veronica persica (VERPE)” value was 100%.

Each compound was assayed on soybean (GLXMA, var. Sultana), wheat (TRZAS, var. Triso) and corn (ZEAMX, var. Aventura) (assay: Pre-emergence crop plant compatibility, summary of Table E1). Details: applied pre-emergence to soybean, wheat and corn at 80 g of active ingredient per hectare; summary in words.
Format: in vivo
Text: as §1, with “crop” for “weed”, “placed” for “laid out”, “pots” for “pots (single sowings with one species of mono- or dicotyledonous weed plant per pot)”, “plants.” for “plants. Tables D1 to D8 below show the effects of selected compounds of the general formula (I) according to Table 1 on various harmful plants and an application rate corresponding to 80 g/ha, which were obtained by the experimental procedure mentioned above.”
With `Fc1cccc(Oc2ccc(Cl)cn2)c1-c1cc(C(F)F)no1` [Example 1-17] the “crop plant tolerance in comparison with structurally similar pyrimidinyloxybenzenes (US 2016/333000 Ex. Nos. 53 and 144)” value was “significantly improved crop plant tolerance”.

The compounds below were run on Abutilon theophrasti (ABUTH) (assay: Herbicidal pre-emergence action, test D, single sowings (Table D4)). Details: dosage 80 g/ha, scored after about 3 weeks.
Format: in vivo
Text: as §1
`Fc1cccc(Oc2ccc(Cl)cn2)c1-c1cc(C(F)F)no1` [Example 1-17] was tested, and the “Pre-emergence action against Abutilon theophrasti (ABUTH)” value was 100%.
